Entries after “also recorded” stand apart in the source; their conditions may differ. Counter-ions that a name gives are not always drawn. Like-named read-outs stand apart in the source and are kept apart here.
B1: interferon-γ (protein, UniProt P01579 24-161, looked up)
Interferon gamma: QDPYVKEAENLKKYFNAGHSDVADNGTLFLGILKNWKEESDRKIMQSQIVSFYFKLFKNFKDDQSIQKSVETIKEDMNVKFFNSNKKKRDDFEKLTNYSVTDLNVQRKAIHELIQVMAELSPAAKTGKRKRSQMLFRG

What was measured:
SARS-CoV-2 [1] = assay: microbe, parasite or virus in culture; type: cell-based; settings: for Inhibition of SARS-CoV-2-induced cytopathic effect, result in words: Vero E6
[2] = test system: lentiviruses pseudotyped with SARS-CoV-2 Spike; type: cell-based
[3] = test system: lentiviruses pseudotyped with SARS-CoV-2 Spike; type: cell-based; remark: listed apart in the source
SARS-CoV-2 [4] = type: cell-based; settings: Vero E6, day 3 post-infection, non-toxic concentrations
in vitro = settings: African green monkey

| Molecule | IC50 (Mean +/- SD) (SARS-CoV-2 [1]) | CC50 (Vero E6 cells; Vero E6, no virus, 3 days) [µM] | Inhibition of SARS-CoV-2-induced cytopathic effect, result in words (SARS-CoV-2 [1]) | Block of SARS-CoV-2 Spike pseudovirus entry, result in words [3] | further results |
| --- | --- | --- | --- | --- | --- |
| CCN(CC)CCCC(C)Nc1ccnc2cc(Cl)ccc12 (stereo not drawn) [Chloroquine] |  |  |  |  | IC50 (SARS-CoV-2 [1]; Severe acute respiratory syndrome coronavirus 2, Vero C1008, 72 h, read-out: IC50 (Mean +/- SD)): 3.9 µM; IC50 (SARS-CoV-2 [1]; read-out: IC50 (Mean +/- SD)): 3.86 µM; Block of SARS-CoV-2 Spike pseudovirus entry, result in words [2]: reduced its inhibitory activity |
| COC(=O)N[C@H](C(=O)N[C@@H](Cc1ccccc1)[C@@H](O)CN(Cc1ccc(-c2ccccn2)cc1)NC(=O)[C@@H](NC(=O)OC)C(C)(C)C)C(C)(C)C.O=S(=O)(O)O [Atazanavir Sulfate] | Not Active | > 20 |  |  |  |
| CCN1CCN(Cc2ccc(Nc3ncc(F)c(-c4cc(F)c5nc(C)n(C(C)C)c5c4)n3)nc2)CC1 [Abenaciclib] |  | > 1 |  |  |  |
| CCCNC(=O)[C@H]1O[C@@H]1C(=O)N[C@H](C(=O)N1CCC[C@H]1C(=O)OC)[C@@H](C)CC [CA-074-Me] | Not Active | > 34 | could not be confirmed using the specific cathepsin B inhibitor CA-074-Me due to drug-associated toxicity | partial blocking effect |  |
| CCCCN1C[C@H](O)[C@@H](O)[C@H](O)[C@H]1CO [NB-DNJ] | active at 100 | > 100 | decreased SARS-CoV-2 cytopathic effect | failed to block viral entry |  |
| CC(C)OC(=O)C(C)(C)Oc1ccc(C(=O)c2ccc(Cl)cc2)cc1 [Fenofibrate] |  |  |  | viral entry was abrogated | SARS-CoV-2 release to the supernatant (nucleoprotein ELISA), result in words (SARS-CoV-2 [4]): less active inhibiting viral release as compared to the rest of the inhibitors tested; CC50 at 3 days (in vitro): > 100 µM |
| CC(C)C(=O)OCC(=O)[C@@]12O[C@H](C3CCCCC3)O[C@@H]1C[C@H]1[C@@H]3CCC4=CC(=O)C=C[C@]4(C)[C@H]3[C@@H](O)C[C@@]12C [Ciclesonide] |  |  | failed to protected Vero E6 cells from SARS-CoV-2 induced cytopathic effect | partial blocking effect | CC50 at 3 days (in vitro; CC50): > 20 µM |
| Alpha-1 Antitrypsin |  |  | exerted an effect but required high concentrations |  | IC50, result in words (SARS-CoV-2 [1]; Vero E6, cytopathic effect): active at 12.5; CC50 (Vero E6 cells; Vero E6, no virus): > 12.5 mg/mL |
| CCOC(=O)[C@H]1O[C@@H]1C(=O)N[C@@H](CC(C)C)C(=O)NCCC(C)C [E-64d] | partialy active at 100 | > 100 | partial inhibitory activity | active when TMPRSS2 is not present |  |
| Cl.Cl.O=C(O)COCCN1CCN(C(c2ccccc2)c2ccc(Cl)cc2)CC1 (stereo not drawn) [Cetirizine dihydorcloride] | Not Active |  |  |  | CC50 (Vero E6 cells): > 100 µM |
| CC(C)OC(=O)OCOP(=O)(CO[C@H](C)Cn1cnc2c(N)ncnc21)OCOC(=O)OC(C)C [Tenofovir disoproxil fumarate] |  |  | failed to show any antiviral effect |  | CC50 (in vitro): > 100 µM |
| CCOC(=O)c1c(CSc2ccccc2)n(C)c2cc(Br)c(O)c(CN(C)C)c12 [Arbidol HCl] |  |  | failed to protected Vero E6 cells from SARS-CoV-2 induced cytopathic effect | partial blocking effect | CC50 at 3 days (in vitro; CC50, Vero E6, no virus, 3 days): > 40 µM |
| CN(C)C(=O)COC(=O)Cc1ccc(OC(=O)c2ccc(NC(=N)N)cc2)cc1 [Camostat] |  |  | no antiviral effect on Vero E6 cells | failed to inhibit viral fusion; also recorded: displays no activity | Block of SARS-CoV-2 Spike pseudovirus entry, result in words [2]: activity was rescued; CC50 (in vitro): > 100 µM |
| CCC(CC)COC(=O)[C@H](C)N[P@](=O)(OC[C@H]1O[C@@](C#N)(c2ccc3c(N)ncnn23)[C@H](O)[C@@H]1O)Oc1ccccc1 [Remdesivir] |  |  |  |  | IC50 (SARS-CoV-2 [1]; Severe acute respiratory syndrome coronavirus 2, Vero C1008, Vero E6, one representative experiment with two replicates, when combined, each drug at the same concentration, read-out: IC50 value of the particular graph): 1.2 µM; IC50 (SARS-CoV-2 [1]; Vero E6, cytopathic effect 3 days after infection, repeated experiments, read-out: IC50 (Mean +/- SD)): < 10 µM; CC50 (in vitro): > 85 µM |
| B1 |  |  |  |  | CC50 (Vero E6 cells; interferons, Vero E6, no virus, 3 days): > 100 × 10^2 IU/mL |
